Assay results taken from paper PMC8863579, “Effects of pharmacological inhibition of the sodium‐dependent phosphate cotransporter 2b (NPT2b) on intestinal phosphate absorption in mouse and rat models” (Pharmacology Research & Perspectives, 2022).
Values joined by “and” are separate entries in the source; they are usually repeats but may differ in a detail not shown here. Equal values may be shown once.

Legend:
gastric emptying = assay: Gastric emptying assay in mice; format: in vivo, mouse; settings: doses up to 100 mg/kg API
Method: Male C57BL/6 mice, approximately 7–8 weeks old (18–21 g), were fasted overnight. Then, the mice were orally administered a single dose of vehicle (water) or varying doses of LY3358966 SDD dissolved in water. Fifteen minutes later, radiolabeled phosphate was given by oral gavage. Another 15 min later, the animals were sacrificed, and intact stomachs were collected and placed in 50‐ml conical tubes. Ten milliliter of 1 N NaOH was added to each tube and the stomachs were digested at 37°C overnight. Radioactivity in 100 µl digested stomach homogenate was quantitated by scintillation counting. The percent radiolabeled phosphate recovered in the stomach was calculated as the percentage of dpm recovered in the stomach versus the total dpm of radiolabeled phosphate administered.

[1] = test system: intestinal phosphate absorption; assay: Recovery of radiolabeled phosphate in feces of mice; format: in vivo, mouse
Method: Male C57BL/6 male mice, 9 weeks old (23–28 g, n = 10/group), were dosed with either placebo or LY3358966 SDD (9 mg/kg API) dissolved in water at t = −4.25, −0.25, and 3.75 h. The animals were fasted from t = −4 to t = 0 h. At t = 0, the animals were dosed with radiolabeled phosphate as described above and were given free access to food. Feces were collected at 6, 24, and 48 h, digested overnight at 37°C in 1 N NaOH, and the recovered radioactivity was determined. Most of the radiolabeled phosphate was recovered in the first 24 h. […] In all cases, the investigators collecting feces were blinded to the treatment.

Human NPT2c = target: T1, Human NPT2c (Homo sapiens, UniProt Q8N130); assay: 33P-phosphate uptake in CHO cells expressing human NPT2c; format: cell-based
T1 construct: Full Length cDNA Cloning and Generation of Cell Lines Over-Expressing Human NPT2a, NPT2c, Pit1, and Pit2; host or cells: CHO-K1 / T-REx CHO, pJTI R4 CMV-TO, tetracycline-induced
T1 sequence (Q8N130 1-599): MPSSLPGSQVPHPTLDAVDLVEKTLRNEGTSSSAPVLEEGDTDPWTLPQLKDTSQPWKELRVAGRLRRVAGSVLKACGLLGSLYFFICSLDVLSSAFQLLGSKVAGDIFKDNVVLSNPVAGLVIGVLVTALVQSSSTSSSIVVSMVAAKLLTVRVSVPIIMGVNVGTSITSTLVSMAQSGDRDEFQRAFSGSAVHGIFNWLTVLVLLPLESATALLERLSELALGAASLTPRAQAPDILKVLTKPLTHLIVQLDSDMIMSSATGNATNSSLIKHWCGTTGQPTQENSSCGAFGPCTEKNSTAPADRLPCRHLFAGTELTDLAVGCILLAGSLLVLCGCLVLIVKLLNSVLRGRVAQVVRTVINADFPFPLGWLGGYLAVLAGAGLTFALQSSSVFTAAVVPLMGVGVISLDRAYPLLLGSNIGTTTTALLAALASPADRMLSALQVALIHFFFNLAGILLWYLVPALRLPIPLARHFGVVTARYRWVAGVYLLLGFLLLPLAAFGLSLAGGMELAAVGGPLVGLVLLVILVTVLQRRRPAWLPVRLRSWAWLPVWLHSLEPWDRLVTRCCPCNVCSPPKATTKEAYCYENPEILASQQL
Method: T‐Rex™ Chinese Hamster Ovary cells (CHO; Thermo Fisher Scientific) stably expressing human, mouse, or rat NPT2b under a tetracycline‐inducible promoter were generated using standard cDNA transfection and clone selection procedures (see Supporting Information). Cells were plated in 96‐well CytoStar‐T® scintillating microplates and were incubated overnight in growth media plus 100 ng/ml of tetracycline to induce expression of NPT2b. The next day, cells were washed 3 times with 200 µl assay buffer (137 mM NaCl, 5.4 mM KCl, 2.8 mM CaCl2, 1.2 mM MgSO4, and 14 mM Tris‐HCl buffer, pH 7.5). LY3358966 serially diluted 1‐to‐3 in DMSO was added to cells with assay buffer. An equal volume of H3 ^33PO4 (PerkinElmer) in assay buffer supplemented with 5 µM potassium phosphate was then added to initiate radiolabeled phosphate (^33P‐phosphate) uptake. […] The plate was immediately read on a Wallac MicroBeta Trilux liquid scintillation counter. Percent inhibition at all concentrations tested was calculated, and IC50 values were then determined using a 4‐parameter logistic curve fitting equation.
Similar methods were used to measure the effects of LY3358966 on other transporters of interest, except that constitutive promoters were used to generate CHO cells over‐expressing human PiT1 and PiT2. The ^33P‐phosphate uptake was measured after 45 min at 20°C for the NPT2a, NPT2c, PiT1, and PiT2 assays. […]

[2] = 9 mg/kg API x 3 doses at 4-h intervals

effect on gastric emptying (gastric emptying): no effect on gastric emptying | IC50 (Human NPT2c; geometric mean, 45 min at 20°C): 251 nM | Selectivity (Human NPT2c; ratio of IC50 of human NPT2c assay to that of human NPT2b assay): 8
Structure (SMILES): CC1(C)CN(C(=O)NCCCCO)CCN1Cc1cccc(C(=O)Nc2sc3c(c2C(=O)Nc2cc(F)c(CCc4ccc(C(=O)O)cc4)c(F)c2)CCCC3)c1 [LY3358966, 4‐[2‐[2,6‐difluoro‐4‐[[2‐[[3‐[[4‐(4‐hydroxybutylcarbamoyl)‐2,2‐dimethyl‐piperazin‐1‐yl]methyl]benzoyl]amino]‐4,5,6,7‐tetrahydrobenzothiophene‐3‐carbonyl]amino]phenyl]ethyl]benzoic acid]
33P Recovered in Feces (0-6 hrs), Mean ± SEM [1, 2]: 6.08 ± 1.68% | 33P Recovered in Feces (6-24 hrs), Mean ± SEM [1, 2]: 10.77 ± 1.57% | 33P Recovered in Feces (24-48 hrs), Mean ± SEM [1, 2]: 1.60 ± 0.08% | 33P Recovered in Total Feces (0-48 hrs), Mean ± SEM ([1]; 9 mg/kg API x 3 doses at 4-h intervals, 9 mg/kg): 18.44% and 18.44 ± 1.27% | increase in radiolabeled phosphate recovered in feces versus vehicle ([1]; 48 h, 9 mg/kg API x 3, 9 mg/kg): 8.6 % of the dose and 8.58 % of the dose
